From patent US4111751A, “Method of purifying alcohol dehydrogenase” (President and Fellows of Harvard College, priority 1977, dated 1978)

Tests used:
[1] = target: T1, II-ADH (anodic band of liver alcohol dehydrogenase) (Homo sapiens, UniProt P08319); experiment: inhibition of purified II-ADH (anodic band, pyrazole-insensitive liver alcohol dehydrogenase) activity; assay type: biochemical
T1 construct: Starting with 100 g frozen human liver; from tissue; host or cells: human liver (frozen), purified
Text: (§1) However, purification of these enzymes has been a complicated and difficult procedure. […] Elution is preferably carried out with pyrazole solution or with a lower alkanol having at least two carbon atoms, e.g., ethanol, 1-propanol, 1-butanol, 1-pentanol, and the like. Further purification and separation of isoenzymes from the bound portion can be achieved by alcohol gradient elution. The alcohol dehydrogenase of the bound portion can be separated from the NAD after elution, if desired, by conventional dialysis procedures. […] The anodic band of liver alcohol dehydrogenase, as identified by Li et al., Biochem. Biophys. Res. Comm.

[2] = system: all other forms of liver alcohol dehydrogenase; experiment: inhibition of the other (pyrazole-sensitive) forms of liver alcohol dehydrogenase; assay type: biochemical, human
Text: as §1

[3] = system: human liver alcohol dehydrogenase; experiment: inhibition of alcohol dehydrogenase activity of frozen human liver starting material; assay type: biochemical; conditions: 33 micromolar, pH 10, frozen human liver
Method: Starting with 100 g frozen human liver having a specific activity at pH 10 of about 0.05 I.U./mg and low inhibition (~ 75%) by 33 micromolar 4-methyl-pyrazole at pH 10 as well as high intensity of stain for the anodic band on starch gel electrophoresis, the liver was homogenized in 2.5 volumes water at 4° C., centrifuged for 30 min. at 30,000 rpm in a 30 rotor to provide 240 ml. of clear supernatant assaying at 58 I.U. of pyrazole-insensitive activity with a specific activity of 0.002 I.U./mg.

[4] = target: T1, II-ADH (anodic band of liver alcohol dehydrogenase); assay type: biochemical; conditions: pH 7.5; read-out: Km for ethanol
Text: as §1

[5] = system: other forms of liver alcohol dehydrogenase; conditions: read-out: Km for ethanol; cited from earlier work

T1 sequence (P08319 2-380 limits assumed): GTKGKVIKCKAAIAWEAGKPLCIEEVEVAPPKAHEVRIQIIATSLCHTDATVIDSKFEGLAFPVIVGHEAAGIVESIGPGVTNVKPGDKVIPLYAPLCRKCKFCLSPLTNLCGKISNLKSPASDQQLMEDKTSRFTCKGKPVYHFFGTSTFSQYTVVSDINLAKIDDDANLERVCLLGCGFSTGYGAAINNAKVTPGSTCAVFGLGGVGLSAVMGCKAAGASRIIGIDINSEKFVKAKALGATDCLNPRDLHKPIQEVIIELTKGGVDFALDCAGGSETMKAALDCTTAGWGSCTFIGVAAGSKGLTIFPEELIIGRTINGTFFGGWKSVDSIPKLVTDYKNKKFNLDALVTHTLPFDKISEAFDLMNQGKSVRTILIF

## Cc1cn[nH]c1 [4-methylpyrazole]
[1]; 0.2 mM 4-methylpyrazole, 100 mM ethanol, purified II-ADH
  inhibition at 200 µM: < 10%
[1]; 33 micromolar, product after agarose-AMP
  inhibition: virtually uninhibited
[1]; eluant (effluent) of pyrazole affinity resin containing the anodic band
  Vi/Vc: 95-100%
[2]; 0.2 mM 4-methylpyrazole, 100 mM ethanol, remainder of purified enzyme forms
  inhibition of activity: more than 90%
[3]
  inhibition: ~ 75%

## CCO [ethanol]
[4]
  Km: 15 to 30 mM
[5]
  Km: ≤ 1 mM

## c1cn[nH]c1 [pyrazole]
[2]; all other forms of liver alcohol dehydrogenase
  Ki: < 1 µM
